Experimental data from patent US6989435B2, “Compounds and methods to inhibit or augment an inflammatory response” (Cambridge University Technical Services Ltd., priority 1997, dated 2006).
Marks after values point to notes of the source that are not given here.

Key:
[1] = test system: chemokine receptors on THP-1 cells; test: Binding to THP-1 cells; parameters: species or system human; conditions: Table 7
Protocol: In general, specific binding is calculated as the amount of labeled agent bound in the absence of cold competitor minus the amount of labeled agent bound in the presence of cold competitor. The amount of specific binding in the presence of varied amounts of cold competitor can be used to determine the association constant for the agent, as well as the number of binding sites on the cell for the agent, using, for example, Scatchard Analysis. The agent may be labeled by radiolabeling (e.g., iodination) or with a suitable biochemical tag (e.g., biotin) or by addition of a photoactivatable crosslinking group. […]
For example, monocytes are suspended in RPMI 1640 medium without bicarbonate containing 0.2% bovine serum albumin and 0.1% azide. […] Filters are washed with 4 ml of cold wash buffer, and the radioactivity bound to the filters is counted in a γ-counter.
For competition studies, the IC50 is calculated with a curve fitting program (GraFit, Erithacus Software, London), using a four-parameter logistic, cpmbound=cpmmax/(1+([L]/IC50)^S)+cpmns, where cpmmax represents the binding without competitor, [L] is the competitor concentration, cpmns is the non-specific binding, and s is the slope factor. […]

[2] = test system: MCP-1 induced THP-1 migration; test: Trans-well THP-1 migration assay, MCP-1 as chemoattractant; format: cell-based, human; conditions: Table 6; n.s. = no statistically significant inhibition
Protocol: (§1) FIG. 1 is a schematic of the trans-well migration assay. In most experiments, the peptide (wavy line) is added to the upper well with about 50,000 cells (O). The upper and lower wells are separated by a 5 μm or 8 μm pore size PVP-free membrane (- - - -). Chemokine (●) is added to the lower well. After 4 hours, the number of cells that have migrated through the membrane are measured (◯ in lower well).
To determine whether an agent inhibits a chemokine-induced activity, such as macrophage recruitment, varying amounts of the agent are mixed with cells in the presence of a known chemoattractant. For example, a range of known concentrations of an agent, e.g., a chemokine peptide, is incubated with a defined number (e.g., 10^4-10^6) of human THP-1 monocyte cells in individual wells of the top compartment of a trans-well plate. Chemokine (such as MCP-1, MIP1α, IL8 or SDF-1α), at a concentration known to cause significant migration of THP-1 cells in the trans-well migration assay, is placed in the lower compartment (FIG. 1). Cells are then incubated at 37° C. for a period sufficient to allow migration, e.g., 4 hours. After incubation, the cells are gently removed from the top of the filter with a pipette, 20 μl of 20 mM EDTA in simple PBS is added into each top well, and incubated for 20 minutes at 4° C. The filter is carefully flushed with media using a gentle flow, and removed. A standard curve consisting of a two-fold dilution series of THP-1 cells (in 29 μl) is prepared to accurately quantify the number of cells that have migrated. Migrated cells are stained with 3 μl of MTT stock dye solution which is added directly into each well (5 mg/ml in RPMI-1640 without phenol red, Sigma Chemical Co.) and incubated at 37° C. for 4 hours. The media is carefully aspirated from each well, and the converted dye is solubilized by 20 μl of DMSO. Absorbance of converted dye is measured at a wavelength of 595 nm using an ELISA plate reader. The number of migrated cells in each well is then determined by interpolation of the standard curve (see also Imai et al., J. Biol. Chem., 272, 15036 (1997)).
(§2) Any method suitable for counting cells can be used, for example, counting with a hemocytometer, incubation of the cells with MTT (see above), or FACS analysis. A negative control assay is also performed, using TGF-β or another non-chemokine chemoattractant (e.g., IL1β or TNFα). To assess whether the agent is cytotoxic, the same concentrations of agent are incubated with THP-1 cells. Agents which 1) are not cytotoxic at levels which inhibit migration, 2) are ineffective at inhibiting the negative control-induced migration, and 3) reduce or inhibit chemokine-induced THP-1 migration, are agents which fall within the scope of the invention.
(§3) For this assay, THP-1 cells were maintained at a density of 4×10^5 cells per ml in RPMI-1640 supplemented with 10% fetal calf serum+20 μM 2-mercaptoethanol. Chemotaxis was induced in a 96-well disposable chemotaxis chamber fitted with a […] polycarbonate filter (PVP free, ChemoTX, Neuroprobe Inc., Cabin John). Twenty-nine μl of chemoattractant (recombinant human chemokine; 50 ng/ml, i.e., 5.9 nM) or control (100 ng/ml TGFβ) was added to the lower compartment of each well. The framed filter was aligned with the holes in the corner of the filter frame and placed over the wells. Five×10^4 THP-1 cells in 25 μl of RPMI-1640 culture media were added to the upper compartment. Peptides were dissolved in Milli Q water and then serially diluted in culture medium. In most cases, the serially diluted peptides were added to the upper compartment of the chemotaxis chamber. The chamber was incubated at 37° C. in a humidified atmosphere of 5% CO2 for 4 hours.
After incubation, the cells were gently removed from the top of the filter with a pipette, 20 μl of 20 mM EDTA in PBS was added into each top well, and the mixture was incubated for 20 minutes at 4° C. The filter was then carefully flushed with media using a gentle flow, and removed. […]

[3] = test system: IL8 induced THP-1 migration; test: Trans-well THP-1 migration assay, IL8 as chemoattractant; format: cell-based, human; conditions: Table 6; n.s. = no statistically significant inhibition
Protocol: as §1
(§4) To determine whether an agent inhibits a chemokine-induced activity, such as macrophage recruitment, varying amounts of the agent are mixed with cells in the presence of a known chemoattractant. For example, a range of known concentrations of an agent, e.g., a chemokine peptide, is incubated with a defined number (e.g., 10^4-10^6) of human THP-1 monocyte cells in individual wells of the top compartment of a trans-well plate. […] A standard curve consisting of a two-fold dilution series of THP-1 cells (in 29 μl) is prepared to accurately quantify the number of cells that have migrated. […] Absorbance of converted dye is measured at a wavelength of 595 nm using an ELISA plate reader. The number of migrated cells in each well is then determined by interpolation of the standard curve (see also Imai et al., J. Biol. Chem., 272, 15036 (1997)). […]

[4] = test system: SDF-1α induced THP-1 migration; test: Trans-well THP-1 migration assay, SDF-1α as chemoattractant; format: cell-based, human; conditions: Table 6; n.s. = no statistically significant inhibition
Protocol: as §1, §4

[5] = test system: TGFβ1 induced THP-1 migration; test: Trans-well THP-1 migration assay, TGFβ1 as non-chemokine control chemoattractant; format: cell-based, human; conditions: Table 6; n.s. = no statistically significant inhibition, even at 100 μM
Protocol: as §2
as §3, with “In most cases, the serially diluted peptides were added to the upper compartment of the chemotaxis chamber. The chamber was incubated at 37° C. in a humidified atmosphere of 5% CO2 for 4 hours.” left out
After incubation, the cells were gently removed from the top of the filter with a pipette, 20 μl of 20 mM EDTA in PBS was added into each top well, and the mixture was incubated for 20 minutes at 4° C. […] A standard curve was prepared to accurately quantify the number of THP-1 cells that had migrated. […] Absorbance of converted dye was measured at a wavelength of 595 nm using an ELISA plate reader. The number of cells that had migrated in each well was determined by interpolation of the standard curve.
To investigate the receptor specificity of peptide 3 inhibition, the ED50 was determined for peptide 3(1-12)[MCP-1] […]

[6] = test system: chemokine-induced THP-1 migration (MCP-1, MIP1α, IL8, SDF1α); test: Trans-well THP-1 migration assay, across the chemokines tested; format: cell-based, human
Protocol: To determine whether an agent inhibits a chemokine-induced activity, such as macrophage recruitment, varying amounts of the agent are mixed with cells in the presence of a known chemoattractant. […] Chemokine (such as MCP-1, MIP1α, IL8 or SDF-1α), at a concentration known to cause significant migration of THP-1 cells in the trans-well migration assay, is placed in the lower compartment (FIG. 1). […] After incubation, the cells are gently removed from the top of the filter with a pipette, 20 μl of 20 mM EDTA in simple PBS is added into each top well, and incubated for 20 minutes at 4° C. The filter is carefully flushed with media using a gentle flow, and removed. […] The media is carefully aspirated from each well, and the converted dye is solubilized by 20 μl of DMSO. Absorbance of converted dye is measured at a wavelength of 595 nm using an ELISA plate reader. The number of migrated cells in each well is then determined by interpolation of the standard curve (see also Imai et al., J. Biol. Chem., 272, 15036 (1997)). […] The framed filter was aligned with the holes in the corner of the filter frame and placed over the wells. Five×10^4 THP-1 cells in 25 μl of RPMI-1640 culture media were added to the upper compartment. Peptides were dissolved in Milli Q water and then serially diluted in culture medium. In most cases, the serially diluted peptides were added to the upper compartment of the chemotaxis chamber. […] After incubation, the cells were gently removed from the top of the filter with a pipette, 20 μl of 20 mM EDTA in PBS was added into each top well, and the mixture was incubated for 20 minutes at 4° C. The filter was then carefully flushed with media using a gentle flow, and removed. […] The media was carefully aspirated from each well, and the converted dye was solubilized by 20 μl of DMSO. Absorbance of converted dye was measured at a wavelength of 595 nm using an ELISA plate reader. […] Representative chemokines included a beta-chemokine (“CC”), MIP-1α, and two alpha-chemokines (“CXC”), IL-8 and SDF-1α. […]

| Sequence | AVERAGE ED50 (peptide 2 family: estimated ka for binding to THP-1 cells) [1] | ED50 versus MCP1, THP-1 migration [2] | ED50 versus IL8, THP-1 migration [3] | ED50 versus SDF1α, THP-1 migration [4] | ED50 versus TGFβ1, THP-1 migration [5] | specificity for the cognate chemokine over the other chemokines tested [6] | CC SPECIFICITY ([6]; Table 7, average inhibitory ED50 versus SDF1 and IL8 divided by average inhibitory ED50 versus MCP-1 and MIP1α) |
| --- | --- | --- | --- | --- | --- | --- | --- |
| HLKILNTPNCALQIV [Pep2[SDF1]] | 1-10^c μM | – | – | – | – | – | – |
| ELRVIESGPHCANTEI [Pep2[IL8]] | 1-10^c μM | – | – | – | – | – | – |
| CLDPKKEWIQ [SEE] | – | n.s. | n.s. | n.s. | n.s. | > 100 fold | >100 |
